Among the data in ChEMBL document CHEMBL3414482, “Structure-activity relationship of pyrrolyl diketo acid derivatives as dual inhibitors of HIV-1 integrase and reverse transcriptase ribonuclease H domain” (J Med Chem, 2015) are IC50 values, retold here.

The test concerns the target Human immunodeficiency virus type 1 reverse transcriptase (Human immunodeficiency virus 1, UniProt Q72547).
`CCOC(=O)/C(N)=C/C(=O)c1cn(Cc2ccc(F)cc2)cc1-c1ccccc1`: the IC50 worked out at 72 µM. Molecule `CCOC(=O)/C(O)=C/C(=O)/C=C/c1cc(C(=O)c2ccc(F)cc2)cn1C` registered a half-inhibitory concentration (IC50) of 28 µM. In turn, `CCOC(=O)/C(O)=C/C(=O)/C=C/c1cn(Cc2ccc(F)cc2)cc1-c1ccccc1` displayed an IC50 of 3 µM. To `C/C(C(=O)c1cn(Cc2ccc(F)cc2)cc1-c1ccccc1)=C(/O)C(=O)O` belongs 64 µM; to `O=C(/C=C(\O)C(=O)O)/C=C/c1cc(C(=O)c2ccc(F)cc2)cn1Cc1ccccc1`, 7.5 µM; to `Cn1cc(C(=O)c2ccc(F)cc2)cc1/C=C/C(=O)/C=C(\O)C(=O)O`, 20 µM. To `N/C(=C\C(=O)c1cn(Cc2ccc(F)cc2)cc1-c1ccccc1)C(=O)O` (mixture of isomers) belongs 2 µM.
